Patent US20090275583A1, “ANTIVIRAL COMPOUNDS AND USE THEREOF” (Myriad Genetics, Incorporated, priority 2006, published 2009)
pEC50, pIC50: −log10 of the molar value. Where two headings read alike, the source gives them in different places.

Columns and labels:
[1] = tested on: HIV-1 laboratory strain, NL4-3; experiment: MT-4 cytoprotection assay; assay type: cell-based
Summary of the method: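 MT-4 cells mock- or batch-infected with NL4-3 (MOI 0.0005) for 2 h, washed, then cultured 4 days with increasing compound concentrations. Viability read by WST-1 tetrazolium reduction: cytoprotection in infected cells, toxicity in mock-infected cells.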

HIV-1NL4-3 = experiment: P4-MAGI assay; assay type: cell-based
Summary of the method: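 HeLa-derived CD4+ P4 cells carrying an LTR-driven lacZ were infected with HIV-1NL4-3 at MOI 1 with DEAE-Dextran, then compound added in increasing concentrations right after virus; infection reported as Tat-induced β-galactosidase. TC50 measured by WST-1 in mock-infected cells.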

[2] = Human immunodeficiency virus 1, NL43, MT4, 96 h, MT-4 cells, four days incubation, WST-1 readout, read-out: MT4 EC50
[3] = Human immunodeficiency virus 1, 24 h, P4 cells, 24 hour incubation, β-galactosidase expression, read-out: P4-MAGI IC50
[4] = Human immunodeficiency virus 1, text statement, less than about 100 nm, read-out: P4-MAGI assay IC50
[5] = Human immunodeficiency virus 1, NL43, less than about 100 nm, read-out: MT-4 assay EC50 (concentration of compound that reduces the virus induced cytopathic effect by 50%)

SMILES	pEC50 [1, 2]	pIC50 (HIV-1NL4-3; [3])	pIC50 (HIV-1NL4-3; [4])	pEC50 [1, 5]
C=C(C)[C@@H]1CC[C@]2(CNCc3cccc(C(=O)NCc4cccc(C(=O)O)c4)c3)CC[C@@]3(C)C(CCC4[C@@]5(C)CC[C@H](O)C(C)(C)C5CC[C@]43C)C12 (some centres unmarked) [Example 143]	5.89	6.92	–	–
C=C(C)[C@@H]1CC[C@]2(C(=O)NCCc3cccc(C(=O)NCc4ccc(C(=O)O)cn4)c3)CC[C@]3(C)C(CCC4[C@@]5(C)CCC(=O)C(C)(C)C5CC[C@]43C)C12 (some centres unmarked) [Example 202]	7.69	7.65	–	–
C=C(C)[C@@H]1CC[C@]2(C(=O)NCc3cccc(C(=O)NCCCCC(=O)O)c3)CC[C@]3(C)C(CCC4[C@@]5(C)CCC(=O)C(C)(C)C5CC[C@]43C)C12 (some centres unmarked) [Example 141]	5.82	6.80	–	–
C=C(C)[C@@H]1CC[C@]2(C(=O)NCCc3cccc(C(=O)NCc4ccc(C(=O)N[C@H](Cc5cc6ccccc6[nH]5)C(=O)OC)cc4)c3)CC[C@]3(C)C(CCC4[C@@]5(C)CC[C@H](O)C(C)(C)C5CC[C@]43C)C12 (some centres unmarked) [Example 167]	7.72	7.66	–	–
C=C(C)[C@@H]1CC[C@]2(C(=O)NCc3cccc(C(=O)NCCc4ccc(F)c(C(=O)O)c4)c3)CC[C@]3(C)C(CCC4[C@@]5(C)CC[C@H](O)C(C)(C)C5CC[C@]43C)C12 (some centres unmarked) [Example 32]	5.52	7.82	> 7.00	–
C=C(C)[C@@H]1CC[C@]2(C(=O)NCc3cccc(C(=O)NCc4ccc(C(=O)O)cc4)c3)CC[C@]3(C)C(CCC4[C@@]5(C)CC[C@H](O)C(C)(C)C5CC[C@]43C)C12 (some centres unmarked) [Example 7]	8.14	7.67	> 7.00	> 7.00
C=C(C)[C@@H]1CC[C@]2(C(=O)NCCc3ccc(O)cc3)CC[C@]3(C)C(CCC4[C@@]5(C)CC[C@H](O)C(C)(C)C5CC[C@]43C)C12 (some centres unmarked) [Example 111]	5.42	7.14	> 7.00	–
C=C(C)[C@@H]1CC[C@]2(C(=O)NCCc3cccc(C(=O)N[C@@H](CC(C)C)[C@@H](O)CC(=O)O)c3)CC[C@]3(C)C(CCC4[C@@]5(C)CC[C@H](O)C(C)(C)C5CC[C@]43C)C12 (some centres unmarked) [Example 65]	7.08	6.81	–	> 7.00
C=C(C)[C@@H]1CC[C@]2(C(=O)NCCc3cccc(C(=O)NCc4ccc(NCCCN5CCOCC5)cc4)c3)CC[C@]3(C)C(CCC4[C@@]5(C)CC[C@H](O)C(C)(C)C5CC[C@]43C)C12 (some centres unmarked) [Example 191]	7.80	7.54	–	–
C=C(C)[C@@H]1CC[C@]2(C(=O)NCc3ccc(F)c(C(=O)NCc4cccc(C(=O)O)c4)c3)CC[C@]3(C)C(CCC4[C@@]5(C)CC[C@H](O)C(C)(C)C5CC[C@]43C)C12 (some centres unmarked) [Example 109]	7.30	6.83	–	> 7.00
C=C(C)[C@@H]1CC[C@]2(C(=O)NCc3cccc(C(=O)NCCNC(=O)OCc4ccccc4)c3)CC[C@]3(C)C(CCC4[C@@]5(C)CC[C@H](O)C(C)(C)C5CC[C@]43C)C12 (some centres unmarked) [Example 5]	5.60	6.97	–	–
C=C(C)[C@@H]1CC[C@]2(C(=O)NCCc3cccc(C(=O)NCc4ccc(C(=O)NCCN5CCC(O)CC5)cc4)c3)CC[C@]3(C)C(CCC4[C@@]5(C)CC[C@H](O)C(C)(C)C5CC[C@]43C)C12 (some centres unmarked) [Example 173]	8.70	7.55	–	–
C=C(C)[C@@H]1CC[C@]2(C(=O)NCCc3cccc(C(=O)NCc4ncccc4C(=O)OC)c3)CC[C@]3(C)C(CCC4[C@@]5(C)CC[C@H](O)C(C)(C)C5CC[C@]43C)C12 (some centres unmarked) [Example 227]	6.12	7.17	–	–
C=C(C)[C@@H]1CC[C@]2(C(=O)NCCc3cccc(C(=O)NCc4cccc(C(=O)O)c4)c3)CC[C@]3(C)C(CCC4[C@@]5(C)CC[C@H](O)C(C)(C)C5CC[C@]43C)C12 (some centres unmarked) [Example 58]	7.74	7.73	> 7.00	> 7.00
C=C(C)[C@@H]1CC[C@]2(C(=O)NCCc3cccc(-c4nnc(Cc5ccc(-c6nn[nH]n6)cc5)o4)c3)CC[C@]3(C)C(CCC4[C@@]5(C)CC[C@H](O)C(C)(C)C5CC[C@]43C)C12 (some centres unmarked) [Example 217]	7.31	7.06	–	–
C=C(C)[C@@H]1CC[C@]2(C(=O)NCCc3cccc(C(=O)NCc4ccc(OCCCN5CCOCC5)cc4)c3)CC[C@]3(C)C(CCC4[C@@]5(C)CC[C@H](O)C(C)(C)C5CC[C@]43C)C12 (some centres unmarked) [Example 196]	7.90	7.89	–	–
C=C(C)[C@@H]1CC[C@]2(C(=O)NCCc3cccc(C(=O)NCCCCC(=O)O)c3)CC[C@]3(C)C(CCC4[C@@]5(C)CC[C@H](O)C(C)(C)C5CC[C@]43C)C12 (some centres unmarked) [Example 56]	6.51	7.33	> 7.00	–
C=C(C)[C@@H]1CC[C@]2(C(=O)NCCc3cccc(C(=O)NCc4ccc(C(=O)N5CC(O)C[C@@H]5C(=O)O)cc4)c3)CC[C@]3(C)C(CCC4[C@@]5(C)CC[C@H](O)C(C)(C)C5CC[C@]43C)C12 (some centres unmarked) [Example 178]	7.46	7.68	–	–

SMILES	pEC50 [1, 2]	pIC50 (HIV-1NL4-3; [3])	pIC50 (HIV-1NL4-3; [4])	pEC50 [1, 5]
C=C(C)[C@@H]1CC[C@]2(C(=O)NCc3ccc(F)c(C(=O)NCCc4cccc(C(=O)O)c4)c3)CC[C@]3(C)C(CCC4[C@@]5(C)CC[C@H](O)C(C)(C)C5CC[C@]43C)C12 (some centres unmarked) [Example 105]	8.07	7.21	> 7.00	> 7.00
C=C(C)[C@@H]1CC[C@]2(C(=O)NCCc3cccc(C(=O)NCc4ccc(C(=O)NCCN5CCCCC5)cc4)c3)CC[C@]3(C)C(CCC4[C@@]5(C)CC[C@H](O)C(C)(C)C5CC[C@]43C)C12 (some centres unmarked) [Example 172]	7.85	7.03	–	–
C=C(C)[C@@H]1CC[C@]2(C(=O)NCCc3cccc(C(=O)NCc4ccc(N(C)C)cc4)c3)CC[C@]3(C)C(CCC4[C@@]5(C)CC[C@H](O)C(C)(C)C5CC[C@]43C)C12 (some centres unmarked) [Example 179]	7.01	7.14	–	–
C=C(C)[C@@H]1CC[C@]2(C(=O)NCc3cc(C(=O)NCc4cccc(C(=O)O)c4)ccc3F)CC[C@]3(C)C(CCC4[C@@]5(C)CC[C@H](O)C(C)(C)C5CC[C@]43C)C12 (some centres unmarked) [Example 101]	8.49	7.55	> 7.00	> 7.00
C=C(C)[C@@H]1CC[C@]2(C(=O)NCCc3cccc(C(=O)NCc4ccc(C(=O)N[C@H](C(=O)O)C(C)C)cn4)c3)CC[C@]3(C)C(CCC4[C@@]5(C)CC[C@H](O)C(C)(C)C5CC[C@]43C)C12 (some centres unmarked) [Example 226]	6.99	7.93	–	–
C=C(C)[C@@H]1CC[C@]2(C(=O)NCc3ccc(OC)c(C(=O)NCCCCC(=O)O)c3)CC[C@]3(C)C(CCC4[C@@]5(C)CC[C@H](O)C(C)(C)C5CC[C@]43C)C12 (some centres unmarked) [Example 114]	6.68	7.32	> 7.00	–
C=C(C)[C@@H]1CC[C@]2(C(=O)NCCc3cccc(C(=O)NCC4CCC(C(=O)OC)CC4)c3)CC[C@]3(C)C(CCC4[C@@]5(C)CC[C@H](O)C(C)(C)C5CC[C@]43C)C12 (some centres unmarked) [Example 210]	7.48	7.51	–	–
C=C(C)[C@@H]1CC[C@]2(C(=O)NCCc3cccc(C(=O)NCc4ccc(C(=O)N[C@@H](C(=O)O)[C@H](C)O)cc4)c3)CC[C@]3(C)C(CCC4[C@@]5(C)CC[C@H](O)C(C)(C)C5CC[C@]43C)C12 (some centres unmarked) [Example 160]	7.41	7.82	–	–
C=C(C)[C@@H]1CC[C@]2(C(=O)NCCc3cccc(C(=O)NCc4ccc(C(=O)OC)cc4)c3F)CC[C@]3(C)C(CCC4[C@@]5(C)CC[C@H](O)C(C)(C)C5CC[C@]43C)C12 (some centres unmarked) [Example 93]	7.40	7.47	> 7.00	> 7.00
C=C(C)[C@@H]1CC[C@]2(C(=O)NCCc3cccc(C(=O)NCc4ccc(C(=O)NCCN5CCOCC5)cc4)c3)CC[C@]3(C)C(CCC4[C@@]5(C)CC[C@H](O)C(C)(C)C5CC[C@]43C)C12 (some centres unmarked) [Example 136]	7.85	7.94	> 7.00	> 7.00
C=C(C)[C@@H]1CC[C@]2(C(=O)NCc3cccc(C(=O)NCc4ccc(F)c(C(=O)OC)c4)c3)CC[C@]3(C)C(CCC4[C@@]5(C)CC[C@H](O)C(C)(C)C5CC[C@]43C)C12 (some centres unmarked) [Example 25]	7.00	7.39	> 7.00	> 7.00
C=C(C)[C@@H]1CC[C@]2(C(=O)NCCc3cccc(C(=O)NCc4cccc(COCc5cccc(C(=O)O)c5)c4)c3)CC[C@]3(C)C(CCC4[C@@]5(C)CC[C@H](O)C(C)(C)C5CC[C@]43C)C12 (some centres unmarked) [Example 208]	7.37	7.54	–	–
C=C(C)[C@@H]1CC[C@]2(C(=O)NCc3cccc(C(=O)NCc4cccc(C(=O)O)c4F)c3)CC[C@]3(C)C(CCC4[C@@]5(C)CC[C@H](O)C(C)(C)C5CC[C@]43C)C12 (some centres unmarked) [Example 41]	8.72	7.44	> 7.00	> 7.00
C=C(C)[C@@H]1CC[C@]2(C(=O)NCCc3cccc(S(=O)(=O)NCc4ccc(C(=O)O)cc4)c3)CC[C@]3(C)C(CCC4[C@@]5(C)CC[C@H](O)C(C)(C)C5CC[C@]43C)C12 (some centres unmarked) [Example 251]	6.59	7.17	–	–
C=C(C)[C@@H]1CC[C@]2(C(=O)NCCc3cccc(C(=O)NCC4COC(C(=O)O)CO4)c3)CC[C@]3(C)C(CCC4[C@@]5(C)CC[C@H](O)C(C)(C)C5CC[C@]43C)C12 (some centres unmarked) [Example 257]	6.48	7.27	–	–
C=C(C)[C@@H]1CC[C@]2(C(=O)NCCc3cccc(C(=O)NCc4ccc(N)cn4)c3)CC[C@]3(C)C(CCC4[C@@]5(C)CC[C@H](O)C(C)(C)C5CC[C@]43C)[C@@H]12 (some centres unmarked) [Example 149]	7.06	7.64	–	–
C=C(C)[C@@H]1CC[C@]2(C(=O)NCCc3cccc(C(=O)NCc4cnc(C)cn4)c3)CC[C@]3(C)C(CCC4[C@@]5(C)CC[C@H](O)C(C)(C)C5CC[C@]43C)C12 (some centres unmarked) [Example 157]	6.95	7.49	–	–
